Measurements taken from patent US6511978B1, “Pyrrole derivatives useful for farnesyl transferase inhibitors and their preparations” (LG Life Sciences, Ltd., priority 1999, dated 2003).

How the values were obtained:
Ras farnesyl transferase [1] = target: T1, Ras farnesyl transferase (Homo sapiens, UniProt P49354+P49356); assay: Ras farnesyl transferase enzyme inhibition, H-Ras substrate; format: biochemical; settings: H-Ras substrate protein; recombinant farnesyl transferase; 30 minutes at 37° C.
T1 construct: made in house
From the text: (§1) In the present experiment, the improved Pompliano's method (see: Pompliano et al., Biochemistry, 31, 3800, 1992) was applied. Specifically, Ras farnesyl transferase produced by genetic recombination techniques was used, and fused protein of H-Ras(H-Ras-CVLS) substituted with polybasic lysine domain at C-terminus of K-Ras (see: Korean Patent Appln. No. 97-14409) was used as a substrate after it had been purified according to the known method(see, Chung et al., Biochimica et Biophysica Acta, 1129, 278, 1992).
(§2) The enzyme reaction was performed in 50 μl of 50 mM Sodium HEPES buffer solution containing 25 mM of potassium chloride, 25 mM of magnesium chloride, 10 mM of DTT and 50 μM of zinc chloride. 1.5 μM of Ras substrate protein, 0.15 μM of tritium-farnesylpyrophosphate and 4.5 nM of farnesyl transferase were used. More specifically, in the initial step, farnesyl transferase was added to the above buffer solution, reaction was maintained for 30 minutes at 37° C. and then the reaction was stopped by adding 1 ml of ethanol solution containing 1M HCl. The formed precipitates were adsorbed to GF/B filter using Hopper harvestor(Hopper #FH 225V) for filter-binding, washed with ethanol, and then radioactivity of the dried filter was measured using LKB β counter. Enzyme titer was measured in the unsaturated state of substrate where the concentration of Ras substrate protein and farnesyl transferase have quantitative relationship. The compound according to the present invention dissolved in dimethyl sulfoxide(DMSO) was added to the reaction solution in an amount of less than 5% of the total reaction solution, and then the enzyme inhibitory activity thereof was measured. The enzyme inhibitory activity was represented by percentage of the amount of farnesyl incorporated into the Ras substrate protein in the presence of the test compound to that in the absence of the test compound. IC50 of the test compound was defined as the concentration at which 50% of the enzyme activity was inhibited. To evaluate the selective enzyme inhibitory activity of the compound according to the present invention, inhibitory activity on geranylgeranyl transferase was measured. Geranylgeranyl transferase was purified from bovine brain according to the modified Schaber's method(Schaber et al., J. Biol. Chem. 265, 14701, 1990), and substantially the same experimental procedure as that for farnesyl transferase was performed on geranylgeranyl pyrophosphate and Ras-CVIL substrate protein.

Ras farnesyl transferase [2] = target: T1, Ras farnesyl transferase; assay: Ras farnesyl transferase enzyme inhibition, K-Ras substrate (H-Ras fused with polybasic lysine domain of K-Ras); format: biochemical; settings: K-Ras substrate (fused protein of H-Ras with polybasic lysine domain of K-Ras); recombinant farnesyl transferase
From the text: as §1, §2

Ras farnesyl transferase [3] = target: T2, Ras farnesyl transferase (Rattus norvegicus, UniProt Q02293+Q04631); assay: In vivo (intracellular) Ras farnesylation inhibition in Rat2 cell line expressing C-Harvey-Ras; format: cell-based; settings: Rat2 cells expressing C-Harvey-Ras; concentration inhibiting 50% of farnesyl binding; read-out: H-Ras CIC50
T2 construct: endogenous in cells; host or cells: Rat2 fibroblasts transformed with C-Harvey-Ras or with the H-Ras/K-Ras polybasic-domain fusion
Procedure: (§3) In the present experiment, Rat2 cell line which expresses C-Harvey-Ras protein having transforming activity and Rat2 cell line(Korean patent application No. 97-14409) which is transformed with fused protein of H-Ras substituted with polybasic lysine domain at C-terminus of K-Ras were used. The experiment was performed by the modified Declue's method(Declue. J. E. et al., Cancer Research, 51, 712, 1991) as follows.
(§4) 3×10^5 cells of transformed Rat2 fibroblast cell line were sprayed on 60 mm cell cultivation dish and cultivated for 48 hours in a cell incubator at 37° C. and after 50% or more of density was reached, it was treated with the test compounds. The compound according to the present invention dissolved in dimethylsulfoxide(DMSO) was used. 1% concentration of dimethylsulfoxide was used in both control and test groups. After 4 hours from the treatment with the compound, methionine labeled with 150 μCi of radioactive isotope [^35S] per 1 ml of medium was added and after cultivating for 20 hours, the cells were washed with physiological saline water. The cells were lysed using 1 ml of cold cell lysis buffer solution(50 mM of Sodium HEPES buffer solution containing 5 mM of magnesium chloride, 1 mM of DTT, 1% NP 40, 1 mM of EDTA, 1 mM of PMSF, 2 μM of leupeptin, 2 μM of pepstatin A and 2 μM of antipain) and the supernatant wherein the cells were lysed was obtained by high-velocity centrifugation of 12,000 g×5 minutes. The amount of radioisotope in the supernatant was measured and standardized to obtain a quantitative result in immunoprecipitation reaction and then, Y13-259, a monoclonal antiboby specifically binding to Ras protein(see: Furth, M. E. et al., J. Virol, 43, 294, 1982) was added and reacted for 15 hours at 4° C. Protein A(combined with goat anti-murine immunoglobulin antibody)-agarose suspension was added to the solution and reacted for 1 hour at 4° C. and then, to remove the unspecific binding product, immunoprecipitates were washed with a buffer solution (50 mM Tris chloride buffer solution containing 50 mM of sodium chloride, 0.5% of sodium dioxycholate, 0.5% of NP 40 and 0.1% of SDS). The precipitates were added to a buffer solution for electrophoresis and boiled and then, electrophoresis was performed using 13.5% of SDS polyacrylamide gel. After electrophoresis, the gel was fixed and dried. Then, the gel was exposed to X-ray film, developed and printed. From the result of the experiment, intensities of band of protein combined with or without farnesyl of Ras protein was measured, and the concentration of the test compound inhibiting 50% of farnesyl binding was defined as CIC50, an in vivo Ras farnesyl transferase inhibitory activity. IC50 means the data from Experimental 1 and CIC50 means the data from Experimental 2.

Ras farnesyl transferase [4] = target: T2, Ras farnesyl transferase; assay: In vivo (intracellular) Ras farnesylation inhibition in Rat2 cell line transformed with H-Ras fused with polybasic lysine domain of K-Ras; format: cell-based; settings: Rat2 cells transformed with H-Ras/K-Ras polybasic domain fused protein; concentration inhibiting 50% of farnesyl binding; read-out: K-Ras CIC50
Procedure: as §3, §4

| Molecule | IC50 (Ras farnesyl transferase [1]) [µM] | IC50 (Ras farnesyl transferase [2]) [µM] | IC50 (Ras farnesyl transferase [3]) [µM] | IC50 (Ras farnesyl transferase [4]) [µM] |
| --- | --- | --- | --- | --- |
| 1-[1-(3-benzyloxypropyl)-2-methyl-1H-imidazol-5-ylmethyl]-3-[N-(2-methoxyethyl)-N-methyl]carbamoyl-4-(naphthalen-1-yl)-1H-pyrrole [Example 34] | < 0.004 | < 0.0047 | > 0.0125 | > 10 |
| COCCN(C)C(=O)c1cn(Cc2cncn2CCCOCc2ccccc2)cc1-c1cccc2ccccc12 [Example 1, 1-[1-(3-benzyloxypropyl)-1H-imidazol-5-yl]methyl-3-[N-(2-methoxyethyl)-N-methyl]carbamoyl-4-(naphthalen-1-yl)-1H-pyrrole] | < 0.01 | < 0.01 | < 0.025 | 10 to 50 |
| COCCN(C)C(=O)c1cn(Cc2cncn2CCCSc2ccccc2)cc1-c1cccc2ccccc12 [Example 5, 3-[N-(2-methoxyethyl)-N-methyl]carbamoyl-4-(naphthalen-1-yl)-1-[1-(3-thiophenoxypropyl)-1H-imidazol-5-yl]methyl-1H-pyrrole] | < 0.01 | < 0.01 | < 0.025 | 10 to 50 |
| CCSCCCn1cncc1Cn1cc(C(=O)N(C)CCOC)c(-c2cccc3ccccc23)c1 [Example 8, 3-[N-(2-methoxyethyl)-N-methyl]carbamoyl-4-(naphthalen-1-yl)-1-[1-(3-thioethoxypropyl)-1H-imidazol-5-yl]methyl-1H-pyrrole] | < 0.01 | < 0.01 | > 0.025 | 10 to 50 |
| COCCN(C)C(=O)c1cn(Cc2cncn2CCCN2CCOCC2)cc1-c1cccc2ccccc12 [Example 9, 3-[N-(2-methoxyethyl)-N-methyl]carbamoyl-1-{1-[3-(morpholin-4-yl)propyl]-1H-imidazol-5-yl}methyl-4-(naphthalen-1-yl)-1H-pyrrole] | < 0.01 | < 0.01 | < 0.025 | 10 to 50 |
| COCCN(C)C(=O)c1cn(Cc2cncn2CCc2cccs2)cc1-c1cccc2ccccc12 [Example 10, 3-[N-(2-methoxyethyl)-N-methyl]carbamoyl-4-(naphthalen-1-yl)-1-{1-[2-(thiophen-2-yl)ethyl]-1H-imidazol-5-yl}methyl-1H-pyrrole] | < 0.01 | < 0.1 | > 0.025 | 10 to 50 |
| CN1CCN(C(=O)c2cn(Cc3cncn3CCc3cccs3)cc2-c2cccc3ccccc23)CC1 [Example 11, 3-(4-methylpiperazin-1-yl)carbonyl-4-(naphthalen-1-yl)-1-{1-[2-(thiophen-2-yl)ethyl]-1H-imidazol-5-yl}methyl-1H-pyrrole] | < 0.01 | < 0.1 | > 0.025 | 10 to 50 |
| CN1CCN(C(=O)c2cn(Cc3cncn3Cc3ccco3)cc2-c2cccc3ccccc23)CC1 [Example 12, 1-[1-(furan-2-yl)methyl-1H-imidazol-5-yl]methyl-3-(4-methylpiperazin-1-yl)carbonyl-4-(naphthalen-1-yl)-1H-pyrrole] | < 0.01 | < 0.1 | > 0.025 | 10 to 50 |
| COCCN(C)C(=O)c1cn(Cc2cncn2C2CCN(Cc3ccccc3)CC2)cc1-c1cccc2ccccc12 [Example 13, 1-[1-(1-benzylpiperidin-4-yl)-1H-imidazol-5-yl]methyl-3-[N-(2-methoxyethyl)-N-methyl]carbamoyl-4-(naphthalen-1-yl)-1H-pyrrole] | < 0.01 | < 0.01 | < 0.025 | 10 to 50 |
| Cc1ncc(Cn2cc(C(=O)N3CCN(C)CC3)c(-c3cccc4ccccc34)c2)n1Cc1ccc2c(c1)OCO2 [Example 15, 1-[2-methyl-1-(3,4-methylenedioxybenzyl)-1H-imidazol-5-ylmethyl]-3-(4-methylpiperazin-1-yl)carbonyl-4-(naphthalen-1-yl)-1H-pyrrole] | < 0.006 | < 0.013 | > 0.025 | > 10 |

Further lines, results first:

| IC50 (Ras farnesyl transferase [1]) [µM] | IC50 (Ras farnesyl transferase [2]) [µM] | IC50 (Ras farnesyl transferase [3]) [µM] | IC50 (Ras farnesyl transferase [4]) [µM] | Molecule |
| --- | --- | --- | --- | --- |
| < 0.01 | < 0.01 | < 0.025 | 10 to 50 | O=C(c1cn(Cc2cncn2CCCOCc2ccccc2)cc1-c1cccc2ccccc12)N1CCOCC1 [Example 2, 1-[1-(3-benzyloxypropyl)-1H-imidazol-5-yl]methyl-3-(morpholin-4-yl)carbonyl-4-(naphthalen-1-yl)-1H-pyrrole] |
| < 0.01 | < 0.01 | < 0.025 | 10 to 50 | CN1CCN(C(=O)c2cn(Cc3cncn3CCCOCc3ccccc3)cc2-c2cccc3ccccc23)CC1 [Example 3, 1-[1-(3-benzyloxypropyl)-1H-imidazol-5-yl]methyl-3-(4-methylpiperazin-1-yl)carbonyl-4-(naphthalen-1-yl)-1H-pyrrole] |
| < 0.01 | < 0.01 | < 0.025 | 10 to 100 | COCCN(C)C(=O)c1cn(Cc2cncn2CCCOc2ccccc2)cc1-c1cccc2ccccc12 [Example 4, 3-[N-(2-methoxyethyl)-N-methyl]carbamoyl-4-(naphthalen-1-yl)-1-[1-(3-phenoxypropyl)-1H-imidazol-5-yl]methyl-1H-pyrrole] |
| < 0.01 | < 0.01 | < 0.025 | 10 to 50 | O=C(c1cn(Cc2cncn2CCCOc2ccccc2)cc1-c1cccc2ccccc12)N1CCOCC1 [Example 6, 3-(morpholin-4-yl)carbonyl-4-(naphthalen-1-yl)-1-[1-(3-phenoxypropyl)-1H-imidazol-5-yl]methyl-1H-pyrrole] |
| < 0.01 | < 0.01 | < 0.025 | 10 to 50 | CN1CCN(C(=O)c2cn(Cc3cncn3CCCOc3ccccc3)cc2-c2cccc3ccccc23)CC1 [Example 7, 3-(4-methylpiperazin-1-yl)carbonyl-4-(naphthalen-1-yl)-1-[1-(3-phenoxypropyl)-1H-imidazol-5-yl]methyl-1H-pyrrole] |
| < 0.01 | < 0.01 | < 0.025 | 10 to 50 | O=C(c1cn(Cc2cncn2C2CCN(Cc3ccccc3)CC2)cc1-c1cccc2ccccc12)N1CCOCC1 [Example 14, 1-[1-(1-benzylpiperidin-4-yl)-1H-imidazol-5-yl]methyl-3-(morpholin-4-yl)carbonyl-4-(naphthalen-1-yl)-1H-pyrrole] |
